# Source: PMC11474028, “Lipopeptide antibiotics disrupt interactions of undecaprenyl phosphate with UptA” (Proceedings of the National Academy of Sciences of the …, 2024)
# “Also recorded” adds a separate entry of the source.
# Biological target: UptA (Bacillus subtilis, UniProt O31823)
# Test: biochemical
# Assay type: binding
# Protocol: We explored the binding affinity of UptA toward C55-P by recording mass spectra for solutions containing 2.5 µM UptA and 0 to 40 µM C55-P in 200 mM ammonium acetate, 0.05% LDAO at pH 8.0. […] Further increase in the concentration of C55-P enhanced the intensity of the UptA:C55-P complex, together with the emergence of additional binding events (Fig. 2A). We deconvoluted the spectra ([34]) to extract mean relative intensities of bound and unbound forms of UptA in the spectral series.
# To investigate the binding selectivity of UptA for monophosphate (C55-P) versus diphosphate (C55-PP) forms of the lipid carrier, we performed comparative binding assays. First, we recorded mass spectra for a mixture of UptA with increasing concentrations of C55-PP (SI Appendix, Fig. S3). […] We then fit the data to Hill equation to obtain an apparent Kd for this system.
# UptA is a member of the DedA family of transporters whose cellular functions are potentially driven by proton-motive force and provide conditional fitness to bacteria under alkaline conditions ([25], [26], [36]). […] To this end, we equilibrated C55-P with UptA at a protein/ligand molar ratio of 1:4 in a buffer of the same composition but at pH 8.0 and 5.0. […] As a negative control, we tested for pH sensitivity of C55-P binding to MraY, the latter being the downstream enzyme in the peptidoglycan pathway that couples UM5 to C55-P. To this end, we equilibrated MraY and C55-P at a molar ratio of 1:4 in a buffer of pH 8.0 and pH 5.0.
# Next, we investigated the chain length selectivity of UptA by testing its interaction with geranylgeranyl phosphate (C20-P), hexaprenyl phosphate (C30-P), and C55-P; the latter representing the native form of the lipid carrier in the model organisms B. subtilis and E. coli ([39]). For this experiment, we incubated 4 µM UptA with a 10-fold molar excess of C20-P, C30-P, and C55-P at pH 8.0 and recorded spectra under the same conditions. […] The length and stereochemistry of lipid tails can influence their interactions with membrane proteins ([40]).
# Detailed experimental procedures are provided in SI Appendix. Briefly, UptA (wild type and mutants) was expressed in E. coli C43(DE3) cells (Lucigen) with GFP fusion on the C-terminus and solubilized from the membrane fraction by n-dodecyl-β-D-maltopyranoside (DDM). After purification by affinity chromatography, the GFP was cleaved by TEV protease and removed, and UptA was further purified by size-exclusion chromatography in a buffer containing 20 mM Tris-HCl (pH 8.0), 200 mM NaCl, 0.02% DDM. Before measurements, proteins were buffer-exchanged into 0.05% LDAO, 200 mM ammonium acetate at the desired pH using a centrifugal buffer exchange device (Micro Bio-Spin 6, Bio-Rad). Stock solutions of lipids were prepared from chloroform/methanol solution by evaporating aliquots of known volume in a SpeedVac. After drying, the lipid films were weighed and resuspended to a final concentration of 0.5 mM in 200 mM ammonium acetate and 0.05% LDAO by vertexing.
# Sequence of UptA (O31823 whole entry): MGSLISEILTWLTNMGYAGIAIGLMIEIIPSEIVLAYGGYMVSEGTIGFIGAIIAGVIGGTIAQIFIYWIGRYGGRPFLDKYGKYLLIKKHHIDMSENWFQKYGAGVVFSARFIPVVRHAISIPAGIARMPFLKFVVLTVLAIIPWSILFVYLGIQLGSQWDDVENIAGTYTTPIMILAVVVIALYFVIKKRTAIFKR
compound,measurement,setting,value
"CC(C)=CCC/C(C)=C/CC/C(C)=C/CC/C(C)=C\CC/C(C)=C\CC/C(C)=C\CC/C(C)=C\CC/C(C)=C\CC/C(C)=C\CC/C(C)=C\CC/C(C)=C\COP(=O)(O)O [C55-P, undecaprenyl phosphate]",protein/ligand molar ratio at which relative intensity of first binding event plateaued,"2.5 µM UptA, 0 to 40 µM C55-P, pH 8.0, 0.05% LDAO",~ 4
same,binding to UptA by lipid chain length (in words),"4 µM UptA, 10-fold molar excess (40 µM) of lipid, pH 8.0, 200 mM ammonium acetate, 0.05% LDAO","highest intensity of protein/ligand complexes; also recorded: more favorably than C55-PP, C30-P, and C20-P"
same,"binding to UptA, equimolar mixture (in words)","equimolar UptA and C55-P, 200 mM ammonium acetate, 0.05% LDAO, pH 8.0",high-affinity binding interactions
same,Kd,"native MS, 2.5 µM UptA, 0 to 40 µM C55-P, 200 mM ammonium acetate, 0.05% LDAO, pH 8.0, Hill equation fit to mean relative intensities of three replicates, 95% CI: C55-P 5.0 to 6.4 µM, C55-PP 9.5 to 32.8 µM, read-out: apparent Kd for the binding of one ligand molecule (1×) to UptA",5.7 µM
same,selectivity of UptA for C55-P versus C55-PP (in words),"native MS, 200 mM ammonium acetate, pH 8, 0.05% LDAO",UptA is more selective toward C55-P than C55-PP
same,pH sensitivity of C55-P binding to UptA (in words),pH 8.0 vs pH 5.0,environmental pH modulates the interaction of C55-P with UptA; also recorded: less C55-P binding to UptA in the presence of excess H^+
same,number of C55-P molecules in complex with UptA dimer,"protein/ligand molar ratio 1:4, pH 8.0",up to two
same,factor by which ligand-bound UptA peaks are more intense at pH 8.0 compared to pH 5.0,"protein/ligand molar ratio 1:4, pH 8.0 vs pH 5.0, 200 mM ammonium acetate, 0.05% LDAO",3
same,C55-P binding to UptA dimer versus monomer (in words),"wild type, protein/ligand molar ratio 1:4, pH 8.0",dimer interacts more favorably with C55-P than the monomer UptA
